Test results: ChEMBL document CHEMBL5678810
Activity calls are given as the source filed them. No cut-off for these calls is given here.

Columns and labels:
[1] = test system: Tyrosine-protein kinase ABL1 (Homo sapiens), P00519 [T315I]; assay: Inhibition of T7 bacteriophage fused human nonphosphorylated ABL1 T315I mutant at 10 uM by KINOMEscan analysis relative to control
[2] = target: Activin receptor type-2B (Homo sapiens) (UniProt Q13705); assay: Inhibition of T7 bacteriophage fused human ACVR2B at 10 uM by KINOMEscan analysis relative to control
[3] = target: Bone morphogenetic protein receptor type-2 (Homo sapiens) (UniProt Q13873); assay: Inhibition of T7 bacteriophage fused human BMPR2 at 10 uM by KINOMEscan analysis relative to control
Chain of Bone morphogenetic protein receptor type-2 (Homo sapiens) (Q13873 whole entry, the tested form may be a part): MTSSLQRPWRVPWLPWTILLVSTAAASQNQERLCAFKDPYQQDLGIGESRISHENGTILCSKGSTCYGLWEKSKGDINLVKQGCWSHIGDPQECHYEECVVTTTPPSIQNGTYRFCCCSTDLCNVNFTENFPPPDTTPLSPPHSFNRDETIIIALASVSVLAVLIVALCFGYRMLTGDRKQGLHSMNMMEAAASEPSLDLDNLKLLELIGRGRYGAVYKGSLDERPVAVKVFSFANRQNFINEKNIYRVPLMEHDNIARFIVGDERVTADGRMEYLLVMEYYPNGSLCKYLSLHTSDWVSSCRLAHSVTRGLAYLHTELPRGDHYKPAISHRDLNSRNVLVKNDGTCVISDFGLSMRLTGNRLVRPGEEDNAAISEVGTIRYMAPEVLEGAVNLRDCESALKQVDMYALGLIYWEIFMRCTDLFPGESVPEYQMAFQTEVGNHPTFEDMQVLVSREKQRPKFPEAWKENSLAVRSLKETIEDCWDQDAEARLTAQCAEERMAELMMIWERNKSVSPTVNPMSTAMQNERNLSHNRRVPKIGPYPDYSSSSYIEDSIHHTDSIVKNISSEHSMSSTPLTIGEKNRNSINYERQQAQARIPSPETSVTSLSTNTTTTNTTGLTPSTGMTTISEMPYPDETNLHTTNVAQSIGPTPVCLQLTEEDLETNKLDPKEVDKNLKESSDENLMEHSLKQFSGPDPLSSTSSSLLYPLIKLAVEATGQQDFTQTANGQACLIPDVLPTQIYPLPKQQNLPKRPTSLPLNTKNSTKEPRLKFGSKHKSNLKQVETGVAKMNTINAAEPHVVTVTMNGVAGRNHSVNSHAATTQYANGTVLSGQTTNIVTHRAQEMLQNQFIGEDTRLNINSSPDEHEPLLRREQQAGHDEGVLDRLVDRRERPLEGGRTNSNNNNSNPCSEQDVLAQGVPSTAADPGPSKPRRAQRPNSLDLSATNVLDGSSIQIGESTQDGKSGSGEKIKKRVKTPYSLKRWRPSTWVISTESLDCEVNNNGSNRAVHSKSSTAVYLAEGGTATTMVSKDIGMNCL

[4] = target: Calcium/calmodulin-dependent protein kinase type II subunit beta (Homo sapiens) (UniProt Q13554); assay: Inhibition of T7 bacteriophage fused human CAMK2B at 10 uM by KINOMEscan analysis relative to control
[5] = target: Cyclin-dependent kinase 4/cyclin D1 (Homo sapiens) (UniProt P11802+P24385); assay: Inhibition of T7 bacteriophage fused human CDK4-cyclinD1 at 10 uM by KINOMEscan analysis relative to control; format: protein-complex assay
[6] = target: CDK4/Cyclin D3 (Homo sapiens) (UniProt P11802+P30281); assay: Inhibition of T7 bacteriophage fused human CDK4-cyclinD3 at 10 uM by KINOMEscan analysis relative to control; format: protein-complex assay
[7] = target: Casein kinase I isoform alpha-like (Homo sapiens) (UniProt Q8N752); assay: Inhibition of T7 bacteriophage fused human CSNK1A1L at 10 uM by KINOMEscan analysis relative to control
[8] = test system: Epidermal growth factor receptor (Homo sapiens), P00533 [L861Q]; assay: Inhibition of T7 bacteriophage fused human EGFR L861Q mutant at 10 uM by KINOMEscan analysis relative to control
Chain of Epidermal growth factor receptor (Homo sapiens), P00533 [L861Q] (P00533 whole entry L861Q, the tested form may be a part): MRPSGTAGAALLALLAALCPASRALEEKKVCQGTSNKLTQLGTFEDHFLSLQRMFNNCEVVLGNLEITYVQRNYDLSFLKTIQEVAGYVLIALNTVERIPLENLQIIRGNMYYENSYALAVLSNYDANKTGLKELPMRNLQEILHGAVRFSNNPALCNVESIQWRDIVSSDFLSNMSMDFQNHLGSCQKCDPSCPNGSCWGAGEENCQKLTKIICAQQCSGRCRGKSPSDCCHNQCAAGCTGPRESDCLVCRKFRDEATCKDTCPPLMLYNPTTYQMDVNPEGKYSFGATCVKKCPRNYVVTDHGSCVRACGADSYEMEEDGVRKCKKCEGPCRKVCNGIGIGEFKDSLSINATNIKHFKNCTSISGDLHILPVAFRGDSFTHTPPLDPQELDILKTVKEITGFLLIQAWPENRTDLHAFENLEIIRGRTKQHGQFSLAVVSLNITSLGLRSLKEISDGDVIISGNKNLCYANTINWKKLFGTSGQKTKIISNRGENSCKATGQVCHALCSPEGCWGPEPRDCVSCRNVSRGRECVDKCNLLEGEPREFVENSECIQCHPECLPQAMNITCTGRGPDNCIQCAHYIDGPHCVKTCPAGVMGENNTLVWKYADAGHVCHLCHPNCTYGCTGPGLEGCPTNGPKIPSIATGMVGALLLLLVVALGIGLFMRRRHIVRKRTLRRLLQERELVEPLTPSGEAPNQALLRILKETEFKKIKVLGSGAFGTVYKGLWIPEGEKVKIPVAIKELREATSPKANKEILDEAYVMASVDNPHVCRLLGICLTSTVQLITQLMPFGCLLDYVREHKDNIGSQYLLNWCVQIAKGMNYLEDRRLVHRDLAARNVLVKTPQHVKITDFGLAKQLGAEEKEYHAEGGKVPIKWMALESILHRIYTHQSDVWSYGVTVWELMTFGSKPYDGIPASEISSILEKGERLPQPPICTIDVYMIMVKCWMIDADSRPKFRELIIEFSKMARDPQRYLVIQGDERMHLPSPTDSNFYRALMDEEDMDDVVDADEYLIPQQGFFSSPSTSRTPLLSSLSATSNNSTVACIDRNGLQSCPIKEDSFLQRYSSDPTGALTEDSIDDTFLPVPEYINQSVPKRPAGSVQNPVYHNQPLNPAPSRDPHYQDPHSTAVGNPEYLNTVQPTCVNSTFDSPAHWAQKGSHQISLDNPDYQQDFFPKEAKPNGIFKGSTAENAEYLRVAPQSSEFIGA

[9] = target: Ephrin type-A receptor 4 (Homo sapiens) (UniProt P54764); assay: Inhibition of T7 bacteriophage fused human EPHA4 at 10 uM by KINOMEscan analysis relative to control
[10] = target: Vascular endothelial growth factor receptor 3 (Homo sapiens) (UniProt P35916); assay: Inhibition of T7 bacteriophage fused human FLT4 at 10 uM by KINOMEscan analysis relative to control
[11] = target: Hormonally up-regulated neu tumor-associated kinase (Homo sapiens) (UniProt P57058); assay: Inhibition of T7 bacteriophage fused human HUNK at 10 uM by KINOMEscan analysis relative to control
[12] = target: Interleukin-1 receptor-associated kinase 1 (Homo sapiens) (UniProt P51617); assay: Inhibition of T7 bacteriophage fused human IRAK1 at 10 uM by KINOMEscan analysis relative to control
[13] = target: Serine/threonine-protein kinase 10 (Homo sapiens) (UniProt O94804); assay: Inhibition of T7 bacteriophage fused human LOK at 10 uM by KINOMEscan analysis relative to control
Chain of Serine/threonine-protein kinase 10 (Homo sapiens) (O94804 whole entry, looked up, the tested form may be a part): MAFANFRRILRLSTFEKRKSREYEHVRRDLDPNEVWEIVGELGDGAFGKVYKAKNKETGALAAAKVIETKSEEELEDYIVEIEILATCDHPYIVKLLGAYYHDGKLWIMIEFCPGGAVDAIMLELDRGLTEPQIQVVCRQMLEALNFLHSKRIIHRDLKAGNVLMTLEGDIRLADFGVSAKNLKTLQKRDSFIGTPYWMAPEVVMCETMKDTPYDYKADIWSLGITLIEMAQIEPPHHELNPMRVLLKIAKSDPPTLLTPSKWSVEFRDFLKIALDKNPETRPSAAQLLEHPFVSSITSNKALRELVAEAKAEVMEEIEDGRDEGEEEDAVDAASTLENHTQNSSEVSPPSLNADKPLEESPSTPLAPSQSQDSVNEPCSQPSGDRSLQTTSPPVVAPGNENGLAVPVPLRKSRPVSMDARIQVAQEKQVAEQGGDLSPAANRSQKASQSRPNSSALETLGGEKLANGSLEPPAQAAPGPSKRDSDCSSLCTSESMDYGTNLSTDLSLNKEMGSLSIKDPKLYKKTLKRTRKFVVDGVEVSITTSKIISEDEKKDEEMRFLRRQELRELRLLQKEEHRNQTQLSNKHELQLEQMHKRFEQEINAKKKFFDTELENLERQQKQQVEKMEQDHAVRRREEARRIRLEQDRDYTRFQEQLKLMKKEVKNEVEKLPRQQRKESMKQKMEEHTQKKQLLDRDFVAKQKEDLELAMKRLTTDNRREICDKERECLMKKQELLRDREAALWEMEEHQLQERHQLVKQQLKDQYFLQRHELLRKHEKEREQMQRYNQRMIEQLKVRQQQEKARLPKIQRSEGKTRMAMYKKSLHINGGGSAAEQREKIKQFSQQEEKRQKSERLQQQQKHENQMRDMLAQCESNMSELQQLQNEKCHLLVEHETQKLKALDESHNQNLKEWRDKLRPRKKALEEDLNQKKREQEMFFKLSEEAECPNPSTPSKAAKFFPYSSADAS

[14] = target: Tyrosine-protein kinase Lyn (Homo sapiens) (UniProt P07948); assay: Inhibition of T7 bacteriophage fused human LYN at 10 uM by KINOMEscan analysis relative to control
[15] = target: Dual specificity mitogen-activated protein kinase kinase 7 (Homo sapiens) (UniProt O14733); assay: Inhibition of T7 bacteriophage fused human MKK7 at 10 uM by KINOMEscan analysis relative to control
[16] = target: Serine/threonine-protein kinase PAK 3 (Homo sapiens) (UniProt O75914); assay: Inhibition of T7 bacteriophage fused human PAK3 at 10 uM by KINOMEscan analysis relative to control
[17] = test system: Phosphatidylinositol 4,5-bisphosphate 3-kinase catalytic subunit alpha isoform (Homo sapiens), P42336 [H1047L]; assay: Inhibition of T7 bacteriophage fused human PIK3CA H1047L mutant at 10 uM by KINOMEscan analysis relative to control
[18] = target: Serine/threonine-protein kinase RIO1 (Homo sapiens) (UniProt Q9BRS2); assay: Inhibition of T7 bacteriophage fused human RIOK1 at 10 uM by KINOMEscan analysis relative to control
[19] = target: Rho-associated protein kinase 1 (Homo sapiens) (UniProt Q13464); assay: Inhibition of T7 bacteriophage fused human ROCK1 at 10 uM by KINOMEscan analysis relative to control
[20] = target: Rho-associated protein kinase 2 (Homo sapiens) (UniProt O75116); assay: Inhibition of T7 bacteriophage fused human ROCK2 at 10 uM by KINOMEscan analysis relative to control
[21] = target: Serine/threonine-protein kinase ICK (Homo sapiens) (UniProt Q9UPZ9); assay: Inhibition of T7 bacteriophage fused human ICK at 10 uM by KINOMEscan analysis relative to control; values are per cent of control
Chain of Serine/threonine-protein kinase ICK (Homo sapiens) (Q9UPZ9 whole entry, the tested form may be a part): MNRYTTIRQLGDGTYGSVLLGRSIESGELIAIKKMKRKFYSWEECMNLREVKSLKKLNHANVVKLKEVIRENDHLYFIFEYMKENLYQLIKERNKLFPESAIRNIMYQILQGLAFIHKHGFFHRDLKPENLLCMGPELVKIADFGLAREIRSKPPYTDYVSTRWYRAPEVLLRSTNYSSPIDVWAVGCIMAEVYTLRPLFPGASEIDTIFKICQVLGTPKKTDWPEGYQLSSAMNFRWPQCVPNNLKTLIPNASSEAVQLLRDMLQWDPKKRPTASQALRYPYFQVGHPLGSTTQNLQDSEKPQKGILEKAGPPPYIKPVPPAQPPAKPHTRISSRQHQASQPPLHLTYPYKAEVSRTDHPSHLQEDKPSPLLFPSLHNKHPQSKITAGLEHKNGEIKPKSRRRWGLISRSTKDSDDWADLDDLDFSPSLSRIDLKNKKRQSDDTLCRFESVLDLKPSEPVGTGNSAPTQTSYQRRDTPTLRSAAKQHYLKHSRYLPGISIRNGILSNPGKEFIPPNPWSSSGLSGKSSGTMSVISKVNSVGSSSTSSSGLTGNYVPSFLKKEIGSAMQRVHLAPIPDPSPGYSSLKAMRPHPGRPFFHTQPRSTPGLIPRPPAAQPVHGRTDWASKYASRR

[22] = target: Mitogen-activated protein kinase 8 (Homo sapiens) (UniProt P45983); assay: Inhibition of T7 bacteriophage fused human JNK1 at 10 uM by KINOMEscan analysis relative to control; values are per cent of control
[23] = target: Serine/threonine-protein kinase STK11 (Homo sapiens) (UniProt Q15831); assay: Inhibition of T7 bacteriophage fused human LKB1 at 10 uM by KINOMEscan analysis relative to control; values are per cent of control
Chain of Serine/threonine-protein kinase STK11 (Homo sapiens) (Q15831 whole entry, the tested form may be a part): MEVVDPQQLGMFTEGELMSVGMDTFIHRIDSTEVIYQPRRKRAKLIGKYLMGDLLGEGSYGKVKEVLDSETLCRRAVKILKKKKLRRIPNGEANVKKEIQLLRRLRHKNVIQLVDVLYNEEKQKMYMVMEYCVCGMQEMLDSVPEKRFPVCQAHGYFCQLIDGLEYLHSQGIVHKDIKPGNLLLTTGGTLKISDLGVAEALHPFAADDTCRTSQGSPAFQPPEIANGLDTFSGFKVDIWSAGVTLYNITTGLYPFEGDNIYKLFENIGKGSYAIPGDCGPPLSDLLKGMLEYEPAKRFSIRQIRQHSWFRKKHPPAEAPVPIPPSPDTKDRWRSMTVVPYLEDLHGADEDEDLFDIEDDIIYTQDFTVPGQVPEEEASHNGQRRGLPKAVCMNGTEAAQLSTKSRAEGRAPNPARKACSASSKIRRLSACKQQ

[24] = target: Dual specificity mitogen-activated protein kinase kinase 6 (Homo sapiens) (UniProt P52564); assay: Inhibition of T7 bacteriophage fused human MEK6 at 10 uM by KINOMEscan analysis relative to control; values are per cent of control
Chain of Dual specificity mitogen-activated protein kinase kinase 6 (Homo sapiens) (P52564 whole entry, the tested form may be a part): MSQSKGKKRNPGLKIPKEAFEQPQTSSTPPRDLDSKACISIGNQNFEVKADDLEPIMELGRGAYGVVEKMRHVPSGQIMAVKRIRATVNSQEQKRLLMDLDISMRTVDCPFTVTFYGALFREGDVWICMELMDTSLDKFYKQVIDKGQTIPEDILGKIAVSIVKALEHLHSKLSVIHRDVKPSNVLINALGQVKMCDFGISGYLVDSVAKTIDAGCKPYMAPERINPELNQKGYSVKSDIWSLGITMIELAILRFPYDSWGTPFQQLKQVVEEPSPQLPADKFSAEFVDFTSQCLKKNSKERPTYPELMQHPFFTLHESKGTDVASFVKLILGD

[25] = target: Ephrin type-A receptor 8 (Homo sapiens) (UniProt P29322); assay: Inhibition of T7 bacteriophage fused human EPHA8 at 10 uM by KINOMEscan analysis relative to control; values are per cent of control
[26] = target: Myosin light chain kinase 2, skeletal/cardiac muscle (Homo sapiens) (UniProt Q9H1R3); assay: Inhibition of T7 bacteriophage fused human MYLK2 at 10 uM by KINOMEscan analysis relative to control; values are per cent of control
[27] = target: Myosin light chain kinase family member 4 (Homo sapiens) (UniProt Q86YV6); assay: Inhibition of T7 bacteriophage fused human MYLK4 at 10 uM by KINOMEscan analysis relative to control; values are per cent of control
Chain of Myosin light chain kinase family member 4 (Homo sapiens) (Q86YV6 whole entry, the tested form may be a part): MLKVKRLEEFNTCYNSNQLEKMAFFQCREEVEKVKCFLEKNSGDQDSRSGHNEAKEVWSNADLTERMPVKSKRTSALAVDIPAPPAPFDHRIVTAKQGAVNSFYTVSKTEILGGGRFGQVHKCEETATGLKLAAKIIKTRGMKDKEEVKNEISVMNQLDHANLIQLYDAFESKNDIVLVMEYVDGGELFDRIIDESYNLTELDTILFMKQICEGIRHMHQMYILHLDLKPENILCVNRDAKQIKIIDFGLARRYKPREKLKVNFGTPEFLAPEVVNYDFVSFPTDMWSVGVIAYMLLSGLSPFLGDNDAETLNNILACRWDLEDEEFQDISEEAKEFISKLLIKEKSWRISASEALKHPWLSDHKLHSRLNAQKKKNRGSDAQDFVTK

[28] = target: Myosin-IIIa (Homo sapiens) (UniProt Q8NEV4); assay: Inhibition of T7 bacteriophage fused human MYO3A at 10 uM by KINOMEscan analysis relative to control; values are per cent of control
[29] = target: Leucine-rich repeat serine/threonine-protein kinase 2 (Homo sapiens) (UniProt Q5S007); assay: Inhibition of wildtype GFP-tagged LRRK2 phosphorylation at Ser910 residue (unknown origin) transfected in HEK293 cells upto 3 uM incubated for 90 mins by immunoblot analysis; format: cell-based
[30] = target: 3-phosphoinositide-dependent protein kinase 1 (Homo sapiens) (UniProt O15530); assay: Inhibition of PDK1 Lys1 labeling site in human PC-3 cell lysate at 10 uM by KiNativ profiling analysis relative to control

`COc1cc(N2CCC(N3CCN(C)CC3)CC2)ccc1Nc1ncc2c(n1)N(C)c1ccccc1C(=O)N2C` showed an inhibition [1] of 100%, an inhibition [2] of 100% and an inhibition [3] of 100%. For the same compound, the inhibition [4] was 62%, the inhibition [5] was 100% and the inhibition [6] was 100%. For the same compound, the inhibition [7] was 100%, the inhibition [8] was 100% and the inhibition [9] was 89%. For the same compound, the inhibition [10] was 100%, the inhibition [11] was 100% and the inhibition [12] was 100%. For the same compound, the inhibition [13] was 100%, the inhibition [14] was 100% and the inhibition [15] was 100%. For the same compound, the inhibition [16] was 83%, the inhibition [17] was 20% and the inhibition [18] was 100%. It also gave an inhibition [19] of 100%, an inhibition [20] of 87% and a residual activity [21] of 90%. It also gave a residual activity [22] of 95%, a residual activity [23] of 96% and a residual activity [24] of 83%. For the same compound, the residual activity [25] was 80%, the residual activity [26] was 98% and the residual activity [27] was 80%. For the same compound, the residual activity [28] was 94%.
With `CCOc1cc(C(=O)N2CCC(N3CCN(C)CC3)CC2)ccc1Nc1ncc2c(n1)N(C1CCCC1)c1ccccc1C(=O)N2C` the inhibition [29] was “inactive” and the inhibition [30] was 0%.
